Values after ≈ are worked out from the molar mass of the structure shown. Like-named read-outs stand apart in the source and are kept apart here.
Tests used:
[1] = Dynamic vapor sorption (DVS) hygroscopicity; format: physicochemical
Experimental: DVS analysis was performed in a DVS advantage (Surface measurement system, United Kingdom) analyzer at 25° C. with a relative humidity of 0% to 90%. 10 mg of a sample was placed into a wire-mesh vapor sorption balance pan, and then attached to a DVS-advantage dynamic vapor sorption balance via surface measurement systems. Until a stable weight was achieved (99.5% completion of steps), the sample was applied to a ramping profile with a relative humidity (RH) of 10% to 90% with a 10% increase of the sample while maintaining the sample in each step. Upon completion of the sorption cycle, the sample was dried using the same process while maintaining a relative humidity of […]. The changes in the sample weight during the adsorption/desorption cycle (repeated 3 times) were recorded, and the hygroscopicity of the sample was measured.

[2] = Stability of the crystalline form under storage conditions; format: physicochemical; conditions: for stability under long-term storage conditions: temperature of 25° C. and relative humidity of 60%; for stability under accelerated conditions: temperature of 40° C. and relative humidity of 75%
Experimental: (§1) HPLC analysis was performed for analyzing purity and contents such as a stability test, etc., using an Agilent 1100/1200 series HPLC Systems (Agilent, USA) analyzer, and the conditions used for HPLC were as follows. • Purity and Content Analysis Conditions: Furopyrimidine Compound of Formula 1 • Column: Hydrosphere C18 (YMC), 5 μm (150 mm×4.6 mm) • Column temperature: 30° C. • Detector: UV spectrophotometer • Detection wavelength: 254 nm • Flow rate: 1.0 mL/min • Time of analysis: 35 min • Eluent: NaClO4—NaH2PO4— phosphate buffer solution (pH 2.5±0.1)/CH3CN=65/35(v/v %) 5. Ion Chromatography (IC)

[3] = format: physicochemical; conditions: for pH of solution: solution of the water solubility test, 20 mg/mL in water
Experimental: as §1
To measure water solubility, each sample of the acid addition salts of the compound of Formula 1 prepared in Examples 1 to 6 was prepared in deionized water under the following conditions, and then each solution was analyzed by HPLC according to content measurement conditions of the compound of Formula 1. The dissolved amounts (LOD: more than 0.001 mg/mL) based on the compound of Formula 1 were measured, and then the values were converted.
In detail, each 100 mg of various forms was added to 5 mL of water, and mixed using a Voltamixer at 20° C. to 25° C., and a filtrate filtered using GH Polypro membrane Acrodisc, PALL (pore size of 0.2 μm) was diluted with a dilution solvent for HPLC.

[4] = amorphous compound of Formula 1 as prepared in the reference documents; cited from earlier work
[5] = 25° C., region with a relative humidity of 10% to 90%

| water absorption in DVS [1, 5] | stability under long-term storage conditions [2] | stability under accelerated conditions [2] | Solubility [3] | Structure (SMILES) | also measured |
| --- | --- | --- | --- | --- | --- |
| about 0.8% | sufficiently stable | sufficiently stable | 0.3~0.7 mg/mL | C=CC(=O)Nc1cccc(Oc2nc(Nc3ccc(N4CCN(C)CC4)cc3)nc3ccoc23)c1 [Example 2, N-(3-(2-(4-(4-methylpiperazin-1-yl)phenylamino)furo[3,2-d]pyrimidin-4-yloxy)phenyl)acrylamide] | pH of solution ([3]; listed as 1HCl•2H2O): 5.8~5.9 |
| about 1% | sufficiently stable | sufficiently stable | 1.27 mg/mL (≈ 2700 µM) | C=CC(=O)Nc1cccc(Oc2nc(Nc3ccc(N4CCN(C)CC4)cc3)nc3ccoc23)c1 [Example 3, N-(3-(2-(4-(4-methylpiperazin-1-yl)phenylamino)furo[3,2-d]pyrimidin-4-yloxy)phenyl)acrylamide] | pH of solution ([3]; listed as 1HCl•anhydrous): 5.9~6.0 |
| about 2% | sufficiently stable | sufficiently stable | 1.13 mg/mL (≈ 2400 µM) | C=CC(=O)Nc1cccc(Oc2nc(Nc3ccc(N4CCN(C)CC4)cc3)nc3ccoc23)c1 [Example 4, N-(3-(2-(4-(4-methylpiperazin-1-yl)phenylamino)furo[3,2-d]pyrimidin-4-yloxy)phenyl)acrylamide] | pH of solution ([3]; listed as 1MsOH•anhydrous): 6.3 |
|  | sufficiently stable | sufficiently stable | 0.9~1.4 mg/mL | C=CC(=O)Nc1cccc(Oc2nc(Nc3ccc(N4CCN(C)CC4)cc3)nc3ccoc23)c1 [Example 1, N-(3-(2-(4-(4-methylpiperazin-1-yl)phenylamino)furo[3,2-d]pyrimidin-4-yloxy)phenyl)acrylamide] | water absorption in DVS ([1]; region with a relative humidity of 0% to 20%): showed water absorption; water absorption in DVS ([1]; region with a relative humidity of 30% or more): very low water absorption; stability under harsh conditions ([2]; printed: temperature of 40° C. and relative humidity of 75%): sufficiently stable; solubility compared in words [3]: higher solubility than the crystalline form of the monohydrochloride; pH of solution ([3]; listed as 2HCl•3H2O): 2.3~2.4 |
| about 1% | sufficiently stable | sufficiently stable | 9.59 mg/mL (≈ 20400 µM) | C=CC(=O)Nc1cccc(Oc2nc(Nc3ccc(N4CCN(C)CC4)cc3)nc3ccoc23)c1 [Example 6, N-(3-(2-(4-(4-methylpiperazin-1-yl)phenylamino)furo[3,2-d]pyrimidin-4-yloxy)phenyl)acrylamide] | solubility compared in words [3]: remarkably high solubility; pH of solution ([3]; listed as 1EsOH anhydrous): 6.3 |
|  |  |  | 0.001 mg/mL | C=CC(=O)Nc1cccc(Oc2nc(Nc3ccc(N4CCN(C)CC4)cc3)nc3ccoc23)c1 [Formula 1 (Free base), N-(3-(2-(4-(4-methylpiperazin-1-yl)phenylamino)furo[3,2-d]pyrimidin-4-yloxy)phenyl)acrylamide] | solubility in water [4]: less than 0.001 mg/mL; pH of solution [3]: 7.2~7.3 |
| about 1% | sufficiently stable | sufficiently stable | 0.93 mg/mL (≈ 1980 µM) | C=CC(=O)Nc1cccc(Oc2nc(Nc3ccc(N4CCN(C)CC4)cc3)nc3ccoc23)c1 [Example 5, N-(3-(2-(4-(4-methylpiperazin-1-yl)phenylamino)furo[3,2-d]pyrimidin-4-yloxy)phenyl)acrylamide] | pH of solution ([3]; listed as 1MsOH•1H2O): 6.1 |

Source: patent US12227510B2, “Crystal form of acid addition salt of furopyrimidine compound” (HANMI PHARM. CO., LTD., priority 2019, dated 2025)
